Data: US11771779B2, “Non-metallic magnetic resonance contrast agent” (HADASIT MEDICAL RESEARCH SERVICES & DEVELOPMENT LIMITED, priority 2018, dated 2023)
Read-outs that look alike come from different tables or passages of the source. Values belong to the compound of their own block, whether it stands above or below them.

Key:
[1] = T1 of hyperpolarized ^15N sites bound to labile protons upon dissolution in H2O and D2O, 5.8 T; type: physicochemical; settings: for T1 upon dissolution in D2O / T1 upon dissolution in H2O: ≈37° C. (35-40° C.), 5.8 T, n=2; for T1 prolongation D2O versus H2O: deuteration of labile protons; for decrease in polarization during 1 min transfer and administration: entire process at physiological temperatures
Protocol: Spin polarization and fast dissolution were carried out in a dDNP commercial device (HyperSense, Oxford Instruments Molecular Biotools, Oxford, UK). The sample was maintained at 1.4-1.5 K and was irradiated at 94.110 GHz. ^15N NMR spectroscopy was performed in a 5.8 T NMR spectrometer (RS2D, Mundolsheim, France), using a 10-mm broadband NMR probe. The temperature in the NMR tube was continuously monitored using an NMR compatible temperature probe (Osensa, Burnaby, BC, Canada). Spectral processing and calculation of integrated intensities was performed using MNova (Mestrelab Research, Santiago de Compostela, Spain). Liquid state polarization was determined by comparing the integrated intensity of the first hyperpolarized spectrum to the integrated intensity of a standard containing a known concentration of ^15N label, where the thermal equilibrium polarization is given as PolTE=tanh(ℏγB/2kbT) Determination of the T1 of the hyperpolarized sites was performed by curve fitting of the signal decay to the following equation: S(t)=S0·e^−t/T^1·(cos θ)^t/TR in which TR, the time between excitations, and θ, the nutation angle of excitation, are known. For measurements of T1 in whole blood, 5.5 ml of whole blood in heparinized tube was obtained from a healthy volunteer and maintained at 20° C. for 2.5 h. Ten minutes before dissolution of the hyperpolarized urea sample, the blood was loaded into a NMR tube in the spectrometer and maintained at 36° C. The hyperpolarized urea sample was dissolved into a container outside the magnet and was injected in 0.5-1.0 mL aliquots followed by ≈2 ml of air through a tube at the bottom of the sample, to ensure no sample remained in the inlet line and complete mixing of the freshly injected solution with the blood. The sample was visually inspected at the end of the experiment to confirm that the hyperpolarized solution was well mixed with the blood and that there was no separation of the blood. Curve fitting was performed using Matlab (Mathworks, Natick, Mass., USA). Statistical analysis was performed using Microsoft Excel (Microsoft, Ra'anana, Israel).

[2] = Description: The dissolution process is detailed in the results section. […] Unless otherwise stated, the dissolved hyperpolarized solution was directly injected to a screw cup 10 mm NMR tube in a 5.8T NMR spectrometer via a PTFE line of about 2.4 m length with 3 s of He(g) chase. This line was wrapped with a heating tape (MRC, Holon, Israel) that enabled control over the temperature of the dissolution medium arriving to the NMR tube directly or to a collection tube in the fringe field of the spectrometer. ^15N-Nuclear Magnetic Resonance (NMR) spectra were continuously recorded immediately at the start of the dissolution process. […] In the experiments in body fluids and in experiments in which the hyperpolarized solution was first cooled to temperatures below room temperature, the dissolution media was first collected in a conical tube placed in the spectrometer's fringe field, and then was injected by syringe via a PEEK line to the NMR tube that was placed in the magnet.
For heating this hyperpolarized solution prior to arrival to the NMR tube, the PTFE line leading the hyperpolarized solution out of the spin polarization device was wrapped with a heating tape connected to a temperature controller (MRC, Holon, Israel). In this way, hyperpolarized solutions at temperatures higher than 26° C. could be obtained. For cooling the hyperpolarized solution, the heating tape was not turned on and the dissolution medium was mixed with 0 to 4 mL of D2O at 2° C. in a collection tube placed in ice-water bath in the fringe field of the magnet, prior to injection.
^15N-NMR spectroscopy was performed in a 5.8T NMR spectrometer (RS2D, Mundolsheim, France), using a 10 mm broad-band NMR probe. The chemical shift scale of the spectra presented herein was calibrated based on a separate measurement of a [^15N2]urea standard sample (4M in H2O:D2O 80:20), carried out prior to hyperpolarized ^15N acquisitions, calibrating the [^15N2]urea signal to −306 ppm (relative to nitromethane). For enhancement factor calculation, the spectra were collected with a high flip angle of […] and a repetition time of 2 s. For T1 calculation, the spectra were acquired with a low flip angle of […] and a longer repetition time of 5-10 s.
The temperature in the NMR tube was continuously monitored using an NMR compatible temperature probe (Osensa, Burnaby, BC, Canada).
Determination of the T1 of the hyperpolarized sites was performed by curve fitting of the signal decay to the following equation: S(t)=S0·e^−t/T^1·(cos θ)^t/TR, in which TR, the time between excitations, and θ, the nutation angle of excitation, are known. Curve fitting was performed using Matlab (Mathworks, Natick, Mass., USA).

[3] = in vivo; cited from earlier work
[4] = Liquid state polarization and buildup of [^15N2]urea by dDNP; type: physicochemical
Protocol: The temperature in the NMR tube was continuously monitored using an NMR compatible temperature probe (Osensa, Burnaby, BC, Canada). […] Curve fitting was performed using Matlab (Mathworks, Natick, Mass., USA).

[5] = Temperature dependence of T1 of hyperpolarized [^15N2]urea in D2O; type: physicochemical; set-up: T1 Average ± SD: unit not given here
Protocol: The experiment shown in FIG. 9B clarified the importance of maximizing the T1 of [^15N2]urea for optimal storage of the polarization, in order to expand the time scale in which the hyperpolarized signal from a single dose can be observed in vivo. As for storage there are no limitation to physiological temperatures, the effect of temperature on the T1 of [^15N2]urea was measured. Given the impressive signal afforded by the dDNP process and its long lifetime, it was possible to measure the T1 of the ^15N sites of urea for a range of temperatures with a single sample that was slowly heated or cooled while the temperature was continuously monitored with an NMR compatible temperature probe (FIG. 10A, top). In order to determine the temperature dependent T1, the decay data were retrospectively binned to consecutive 10° C. segments (FIG. 10A, alternating shading indicates different 10° C. segments) and the T for each temperature segment was determined (FIG. 10B, inset).
The hyperpolarized decay acquisitions were carried out with 3-10° excitation angle and 5-20 s repetition time. There was no significant difference in the T determined with different acquisition parameters.
Individual measurements are shown. Each column represents a single hyperpolarized decay, obtained with the same flip angle and repetition time. Using an online measurement of the temperature inside the NMR tube, we could differentiate different temperature regimes within a single decay and thus assess the effect of temperature on T1. T1 values were determined by fitting the equation describing the mono-exponential decay of a hyperpolarized signal: S(t)=S0·e−t/T1·(cos θ)t/TR.
The angle of excitation was determined by calibration of the 90o excitation on a ^15N labeled standard. The error for each individual measurement represents the 95% confidence interval of the curve fit.
The temperature gradient was formed by adding a solution at a temperature different than the spectrometer temperature so that throughout the acquisition the sample slowly cooled/warmed to the spectrometer temperature. […] Variability in the determined T1 values may be due to slight variations in the effective angle of excitation and/or the amount of trace protons present in different samples; indeed when different temperature segments are compared within the same hyperpolarized decay, (i.e. for the same sample on the same day), the dependence of T1 on the temperature can be even more clearly seen. The average and standard deviation of all measurements in the same temperature regime are shown in the column on the right.

Remark: listed apart in the source

T1 upon dissolution in D2O [1]: 215 ± 2 s
T1 upon dissolution in H2O [1]: 45 ± 3 s
T1 prolongation D2O versus H2O [1]: 4.8 fold
Compound: O=C1CCC(=O)[15NH]1 [[^15N]succinimide]

decrease in polarization during 1 min transfer and administration [1]: ≈ 80%
Compound: N[13C](N)=O [carbon-13 labeled urea, reference compound]

Compound: O=[15N][O-].[Na+] [[^15N]nitrite, sodium [^15N]nitrite]
T1 ([2]; D2O, n=2): 14.8 ± 0.6 s
T1 ([2]; H2O, n=2): 13.6 ± 0.5 s
T1 ([2]; same sample, D2O (co-polarized nitrate and nitrite)): 14 s

Compound: O=NO [Nitrite (NO2), Nitrite]
half-life in the circulation [3]: 0.333 h

Compound: [15NH2]C([15NH2])=O [[^15N2]urea]
T1 upon dissolution in D2O [1]: 200 ± 20 s
T1 upon dissolution in H2O [1]: 33 ± 5 s
T1 prolongation D2O versus H2O [1]: 6.1 fold
decrease in polarization during 1 min transfer and administration [1]: ≈ 25%
polarization buildup time ([4]; R^2=0.93): 2.3 ± 1.2 h
maximum polarization ([4]; liquid state polarization after varying irradiation times, 1.4-1.5 K): 5.1±1.6%
T1 Average ± SD ([5]; 15-25° C., n = 3): 146 ± 23
T1 Average ± SD ([5]; 25-35° C., n = 4): 191 ± 33
T1 Average ± SD ([5]; 35-45° C., n = 6): 226 ± 38
T1 Average ± SD ([5]; 45-55° C., n = 4): 308 ± 34
T1 Average ± SD ([5]; 55-65° C., n = 4): 351 ± 40
T1 Average ± SD ([5]; 65-75° C., n = 3): 382 ± 48
T1 ([5]; #1, θ 10°, TR 5 s, 35-45° C.): 228 ± 4
T1 ([5]; #2, θ 3°, TR 10 s, 15-25° C., ± 95% CI of fit): 155 ± 3
T1 ([5]; #2, θ 3°, TR 10 s, 25-35° C.): 196 ± 8
T1 ([5]; #3, θ 10°, TR 10 s, 25-35° C.): 209 ± 2
T1 ([5]; #3, θ 10°, TR 10 s, 35-45° C.): 266 ± 4
T1 ([5]; #3, θ 10°, TR 10 s, 45-55° C.): 355 ± 8
T1 ([5]; #3, θ 10°, TR 10 s, 55-65° C.): 382 ± 17
T1 ([5]; #4, θ 10°, TR 10 s, 25-35° C.): 216 ± 2
T1 ([5]; #4, θ 10°, TR 10 s, 35-45° C.): 272 ± 3
T1 ([5]; #4, θ 10°, TR 10 s, 45-55° C.): 340 ± 5
T1 ([5]; #4, θ 10°, TR 10 s, 55-65° C.): 386 ± 12
T1 ([5]; #4, θ 10°, TR 10 s, 65-75° C.): 416 ± 23
T1 ([5]; #5, θ 10°, TR 10 s, 35-45° C.): 216 ± 5
T1 ([5]; #5, θ 10°, TR 10 s, 45-55° C.): 273 ± 4
T1 ([5]; #5, θ 10°, TR 10 s, 55-65° C.): 305 ± 14
T1 ([5]; #5, θ 10°, TR 10 s, 65-75° C.): 327 ± 16
T1 ([5]; #6, θ 10°, TR 10 s, 15-25° C.): 112 ± 6
T1 ([5]; #6, θ 10°, TR 10 s, 25-35° C.): 143 ± 1
T1 ([5]; #7, θ 10°, TR 15 s, 35-45° C.): 198 ± 2
T1 ([5]; #8, θ 10°, TR 15 s, 35-45° C.): 176 ± 5
T1 ([5]; #9, θ 5°, TR 20 s, 45-55° C.): 284 ± 6
T1 ([5]; #9, θ 5°, TR 20 s, 55-65° C.): 332 ± 11
T1 ([5]; #9, θ 5°, TR 20 s, 65-75° C.): 404 ± 41
T1 ([5]; #10, θ 10°, TR 10 s, 15-25° C.): 163 ± 20
T1 ([5]; D2O, 65-75° C. (above 65° C.)): more than 6 min
T1 ([5]; deuterated water, physiological temperatures): > 3 min
T1 in whole blood (2nd injection): 12.0 ± 0.2 s
T1 in whole blood (3rd injection): 12.9 ± 0.6 s
T1 in whole blood (37° C.): 10 s
T1 in whole human blood (first decay curve, D2O:whole blood 1:10, 95% CI): 9.8 ± 0.2 s

Compound: O=[N+]([O-])O [nitrate (NO3—), nitrate]
half-life in the circulation [3]: 5 to 6 h

Compound: Cl.N[C@@H](CCCNC(=[15NH])[15NH2])C(=O)O [[guanido-^15N2]arginine, L-[guanido-^15N2]arginine:HCl]
T1 upon dissolution in D2O [1]: 44 ± 1 s
T1 upon dissolution in H2O [1]: 6.6 ± 0.3 s
T1 prolongation D2O versus H2O [1]: 6.7 fold
